Measurements published in the NIST ThermoML archive (doi:10.1021/je049787p).
± gives the expanded uncertainty stated by the source.

Test: xn = mol fraction of the nth substance listed
Conditions: 101.3 kPa, Liquid; for electrical conductivity: Alternating current cell with electrodes

C=CCn1cc[n+](C)c1.[Cl-] [1-allyl-3-methylimidazolium chloride] + CCO
Conditions | electrical conductivity, 293.15 K [S/m] | electrical conductivity, 303.15 K [S/m] | electrical conductivity, 313.15 K [S/m] | electrical conductivity, 323.15 K [S/m] | electrical conductivity, 333.15 K [S/m] | viscosity, 293.15 K [mPa·s] | viscosity, 303.15 K [mPa·s] | viscosity, 313.15 K [mPa·s] | viscosity, 323.15 K [mPa·s] | viscosity, 333.15 K [mPa·s]
x2 = 0 | 0.382 | 0.44 | 0.501 | 0.562 | 0.624 | 66 ± 10 | 44.7 ± 5.9 | 25.3 ± 3.5 | 20.6 ± 2.8 | 16.2 ± 2.3
x2 = 0.1 | 0.485 | 0.543 | 0.604 | 0.66 | 0.722 | 54.6 ± 3 | 44.1 ± 5.8 | 24.6 ± 3.4 | 20 ± 2.8 | 16 ± 2.3
x2 = 0.2 | 0.627 | 0.682 | 0.74 | 0.801 | 0.859 | 45.7 ± 6 | 42.2 ± 5.5 | 24.1 ± 3.3 | 19.5 ± 2.7 | 15.4 ± 2.2
x2 = 0.3 | 0.703 | 0.759 | 0.818 | 0.876 | 0.935 | 39.1 ± 5.1 | 30.9 ± 4.1 | 22.6 ± 3.1 | 18.7 ± 2.6 | 15.1 ± 2.1
x2 = 0.35 | 0.8 | 0.855 | 0.91 | 0.969 | 1.02 | 30.5 ± 4.1 | 25.1 ± 3.4 | 19.4 ± 2.7 | 16 ± 2.2 | 14.4 ± 2
x2 = 0.45 | 0.884 | 0.943 | 0.999 | 1.06 | 1.11 | 26.4 ± 3.5 | 22.1 ± 3 | 20.1 ± 2.8 | 16.7 ± 2.3 | 13.1 ± 1.9
x2 = 0.5 | 0.952 | 1.01 | 1.06 | 1.11 | 1.17 | 23.2 ± 3.1 | 18.1 ± 2.5 | 15.3 ± 2.2 | 13.6 ± 1.9 | 11.2 ± 1.6
x2 = 0.55 | 1.03 | 1.09 | 1.14 | 1.2 | 1.25 | 20.4 ± 2.8 | 16.3 ± 2.3 | 14 ± 2 | 12.5 ± 1.8 | 10.1 ± 1.5

C=CCn1cc[n+](C)c1.[Cl-] [1-allyl-3-methylimidazolium chloride] + O
Conditions | electrical conductivity, 293.15 K [S/m] | electrical conductivity, 303.15 K [S/m] | electrical conductivity, 313.15 K [S/m] | electrical conductivity, 323.15 K [S/m] | electrical conductivity, 333.15 K [S/m] | viscosity, 293.15 K [mPa·s] | viscosity, 303.15 K [mPa·s] | viscosity, 313.15 K [mPa·s] | viscosity, 323.15 K [mPa·s] | viscosity, 333.15 K [mPa·s]
x2 = 0 | 0.382 | 0.44 | 0.501 | 0.562 | 0.624 | 66 ± 10 | 44.7 ± 5.9 | 25.3 ± 3.5 | 20.6 ± 2.8 | 16.2 ± 2.3
x2 = 0.3 | 0.817 | 0.874 | 0.93 | 0.985 | 1.04 | 51.3 ± 1.5 | 40.7 ± 5.3 | 24.1 ± 3.3 | 19.6 ± 2.7 | 15 ± 2.1
x2 = 0.45 | 1.11 | 1.17 | 1.23 | 1.28 | 1.33 | 42.7 ± 5.6 | 31.4 ± 4.2 | 22.9 ± 3.1 | 18.2 ± 2.5 | 15.1 ± 2.1
x2 = 0.59 | 1.36 | 1.42 | 1.47 | 1.53 | 1.58 | 34.4 ± 4.5 | 27.5 ± 3.7 | 22.7 ± 3.1 | 18.3 ± 2.5 | 14.9 ± 2.1
x2 = 0.65 | 1.55 | 1.61 | 1.66 | 1.72 | 1.77 | 29.1 ± 3.9 | 24.2 ± 3.3 | 20.9 ± 2.8 | 17.6 ± 2.4 | 14.3 ± 2
x2 = 0.7 | 1.73 | 1.78 | 1.84 | 1.89 | 1.94 | 26.1 ± 3.5 | 22 ± 3 | 19.5 ± 2.7 | 16.4 ± 2.3 | 13 ± 1.9
x2 = 0.75 | 1.84 | 1.89 | 1.95 | 2 | 2.05 | 22.6 ± 3.1 | 18.7 ± 2.6 | 15.4 ± 2.2 | 12.2 ± 1.8 | 10.1 ± 1.5
x2 = 0.8 | 1.93 | 1.99 | 2.04 | 2.09 | 2.14 | 19.3 ± 2.6 | 15.6 ± 2.2 | 12.7 ± 1.8 | 11.1 ± 1.6 | 9.2 ± 1.4
